One molecule from patent US6596309B2, “Stable pharmaceutical dosage form for paroxetin anhydrate” (BASF Aktiengesellschaft, priority 1999, dated 2003) can be followed below.

This data set is described as follows: Check for conversion of the anhydrate to the hemihydrate in soft gelatin capsules (infrared spectroscopy or DSC). Conditions: paroxetin anhydrate incorporated into soft gelatin capsules; lipophilic carrier silicone oil. It counts as physicochemical. The source says: The incorporation of paroxetin anhydrate into soft gelatin capsules was surprising because soft gelatin contains very large amounts of water during the encapsulation process. […] However, the use of glycerol in the preparation of the capsule coat should be avoided.
A test for absence of the hemihydrate can be performed very simply by infrared spectroscopy or differential scanning calorimetry (DSC), as described by P.C. Baxter et al. in the International Journal of Pharmaceutics, 42 (1988), pages 135 to 143.

As for `Fc1ccc([C@@H]2CCNC[C@H]2COc2ccc3c(c2)OCO3)cc1` (relative stereo) [paroxetin anhydrate, (—)-trans-4-(4′-fluorophenyl)-3-(3′,4′-methylenedioxyphenoxymethyl)-piperidine], the “conversion to the hemihydrate” value is on record as “did not occur”.
